Assay results taken from patent US11529323B2 (priority 2017, dated 2022).

Tests used:
Type in all cases: in vivo, mouse
serum cytokines = test: Serum cytokine panel, multiplex analysis, Study 2, C-26 tumor-bearing mice; details: GTx-024 15 mg/kg, AR-42 10 mg/kg p.o. qd, Day 17 sacrifice, mean ± SD
Description: These studies were performed as previously described (Tseng Y C, et al. J Natl Cancer Inst. 2015 107(12):djv274) with modifications. Tumors were established in the right flank by subcutaneous injection of C-26 cells (0.5×10^6 cells in 0.1 mL). […] TFM-4AS-1 (a potent experimental SARM), dihydrotestosterone (DHT) and vehicles were administered by subcutaneous injection.
This confirmatory study was performed exactly as Study 1 with expanded animal numbers. Tumor-free control groups were maintained at 6 animals each, whereas 10 animals were included in each of the tumor-bearing groups. […] Grip strength was measured on study days 0 (baseline) and 16. Due to rapid model progression, this study was terminated after only 12 days of treatment.
Serum cytokine panel analyses were performed by a commercial vendor (Eve Technologies, Calgary, Canada) as previously described. Serum interleukin-6 (IL-6) was measured using a commercial ELISA kit (R&D Systems, Minneapolis, Minn., USA) according to the manufacturer's instructions.

[1] = test system: atrogin-1 (FBXO32), MuRF-1 (TRIM63), CEBPO (CEBPD); test: qRT-PCR of atrophy-related genes in gastrocnemius muscle, Study 1; details: relative to tumor-bearing controls, GTx-024 15 mg/kg, AR-42 10 mg/kg
Description: FIGS. 3A-B show gene expression of multiple cachexia-associated markers in gastrocnemius muscles of individual animals from Study 1 (n=5-6 per group). Expression was determined by qRT-PCR (Geometric Mean±Geometric STD). FIG. 3A contains bar graphs showing genes associated with muscle atrophy. FIG. 3B is a bar graph showing androgen receptor (AR) mRNA expression. […] Statistics all panels: *p<0.05, ***p<0.001, ****p<0.0001 versus tumor-bearing vehicle-treated controls, Dunnett's multiple comparison test. CEBPO, n=4, insufficient sample to analyze all tumor-bearing GTx-024-treated animals.
qRT-PCR: To generate muscle tissue RNA, 15 mg of gastrocnemius muscle tissue was lysed in 10 volumes of lysis buffer per tissue mass in prefilled 2.0 ml tubes with 3.0 mm zirconium beads (MIDSCl; St. Louis, Mo.). Tubes were loaded into Beadblaster™ 24 (MIDSCl; St. Louis, Mo.) and centrifuged for 5 cycles of 5 seconds with a 30 second pause between cycles. Lysate was collected and RNA was isolated using the mirVana™ miRNA Isolation Kit, with phenol (ThermoFisher; Waltham, Mass.). Samples were treated with DNA-free DNA Removal Kit to eliminate any DNA contamination (Invitrogen, Carlsbad, Calif.). […] As transformed expression data are not normally distributed, statistical differences between treatment groups were determined by one-way ANOVA followed by Dunnett's test on raw delta Ct values.

[2] = test system: gastrocnemius transcriptome; test: RNA-seq of gastrocnemius muscles, Study 1; details: for expression of Wnt5a, Fzd1, β-catenin (CTNNB1) and GSK3B: gastrocnemius of tumor-bearing mice, AR-42: with the exception of β-catenin
Description: For each sample, 600 ng total RNA (Bioanalyzer RIN values>7) was used to generate polyA enriched RNA-seq libraries with the NEBNext Ultra II Directional RNA Library Prep Kit (New England Biolabs, Inc., catolog number E7760) and sequenced as PE-150 reads on HiSeq 4000 (Illumina Inc, San Diego, Calif.). Raw fastq files were adaptor trimmed using Trimmomatic (Bolger, A. M., et al. Bioinformatics 2014 30(15):2114-2120), aligned to the mm10 genome with Subread (Liao Y, et al. Nucleic Acids Res. 2013 41(10):e108), and marked for duplicate reads with Picard v2.3.0. Samtools (Li H., et al. Bioinformatics 2014 25:2078-9) was used to calculate post-alignment quality control metrics (Table 3). A gene-based counts matrix was generated with the summarizeOverlaps function of GenomicAlignments (Lawrence M, et al. PLoS Comput Biol 9(8):e1003118) and analyzed with DESeq2 (Love, M. I., et al. Genome biology 15(12):550) for genes differentially expressed among groups. GSEAPreranked analyses (Subramanian A, et al. Proc Natl Acad Sci USA. 2005 102:15545-15550) were performed using the signed log 10 p-values for each gene to test for significant enrichment of gene sets in the ‘TF Targets’ file downloaded from ge-lab.org/#/data. Any duplication in signed log 10 p-values was removed prior to running the GSEAPreranked analyses by adding a small value sampled at random from a normal distribution with mean zero and standard deviation 0.00001 to each duplicated value. GSEAPreranked analyses were performed in classic mode on gene sets with a minimum and maximum of 5 and 5000 genes in the gene set, respectively, and were followed by leading-edge analyses for selected comparison and gene set combinations. Heatmaps for RNA-seq data were generated with pheatmap using z-scores calculated from log count-per-million values obtained with the ‘cpm’ function in EdgeR (Robinson, M. D., et al. Bioinformatics 2010 26:139-140).

Structure (SMILES) | Eotaxin, serum (serum cytokines) | G-CSF, serum (serum cytokines) | GM-CSF, serum (serum cytokines) | IFNg, serum (serum cytokines) | IL12 (p40), serum (serum cytokines) | IL-1a, serum (serum cytokines) | IL-1b, serum (serum cytokines) | IL-2, serum (serum cytokines) | IL-3, serum (serum cytokines) | IL-4, serum (serum cytokines) | IL-5, serum (serum cytokines) | IL-6, serum (serum cytokines) | IL-7, serum (serum cytokines) | IL-9, serum (serum cytokines) | IL-10, serum (serum cytokines) | IL-12 (p70), serum (serum cytokines) | IL-13, serum (serum cytokines) | IL-15, serum (serum cytokines) | IL-17, serum (serum cytokines) | IP-10, serum (serum cytokines) | other results
CC(C)[C@H](C(=O)Nc1ccc(C(=O)NO)cc1)c1ccccc1 [AR-42, (S)—N-hydroxy-4-(3-methyl-2-phenylbutanamido)benzamide] | 735.73 ± 110.62 pg/mL | 2782.18 ± 2191.30 pg/mL | 18.70 ± 3.77 pg/mL | 4.69 ± 1.11 pg/mL | 31.22 ± 24.43 pg/mL | 143.31 ± 157.59 pg/mL | 20.48 ± 6.25 pg/mL | 19.37 ± 6.07 pg/mL | 0.72 ± 0.83 pg/mL | 0.32 ± 0.19 pg/mL | 5.50 ± 4.41 pg/mL | 256.59 ± 183.1 pg/mL | 41.51 ± 99.92 pg/mL | 11.28 ± 7.68 pg/mL | 15.13 ± 11.16 pg/mL | 10.16 ± 6.16 pg/mL | 34.19 ± 8.29 pg/mL | 51.57 ± 19.99 pg/mL | 1.82 ± 0.85 pg/mL | 215.35 ± 52.46 pg/mL | KC, serum (serum cytokines): 363.38 ± 200.65 pg/mL; LIF, serum (serum cytokines): 15.79 ± 5.15 pg/mL; LIX, serum (serum cytokines): 2515.38 ± 3119.67 pg/mL; M-CSF, serum (serum cytokines): 20.21 ± 4.63 pg/mL; MCP-1, serum (serum cytokines): 91.18 ± 40.23 pg/mL; MIG, serum (serum cytokines): 55.17 ± 10.58 pg/mL; MIP-1a, serum (serum cytokines): 63.79 ± 19.14 pg/mL; MIP-1b, serum (serum cytokines): 76.41 ± 12.81 pg/mL; MIP-2, serum (serum cytokines): 146.34 ± 32.60 pg/mL; RANTES, serum (serum cytokines): 19.70 ± 4.31 pg/mL; TNFa, serum (serum cytokines): 12.77 ± 4.55 pg/mL; VEGF, serum (serum cytokines): 1.04 ± 0.24 pg/mL; atrogin-1, MuRF-1, or CEBPO expression [1]: significantly reduced the expression of each atrogene; IL-6 receptor (IL-6RA) mRNA expression in gastrocnemius ([2]; cachectic mice): restore non-cachectic control levels; expression of Wnt5a, Fzd1, β-catenin (CTNNB1) and GSK3B [2]: effectively reversed tumor-induced regulation
C[C@](O)(COc1ccc(C#N)cc1)C(=O)Nc1ccc(C#N)c(C(F)(F)F)c1 [GTx-024, (2S)-3-(4-cyanophenoxy)-N-(4-cyano-3-(trifluoromethyl)phenyl)-2-hydroxy-2-methylpropanamide] | 876.82 ± 100.53 pg/mL | 2446.63 ± 1625.70 pg/mL | 17.35 ± 4.33 pg/mL | 4.12 ± 2.09 pg/mL | 27.61 ± 27.95 pg/mL | 167.80 ± 156.50 pg/mL | 12.12 ± 5.54 pg/mL | 15.62 ± 3.41 pg/mL | 0.92 ± 0.56 pg/mL | 0.23 ± 0.14 pg/mL | 1.11 ± 0.66 pg/mL | 397.54 ± 341.43 pg/mL | 11.19 ± 8.17 pg/mL | 8.69 ± 9.43 pg/mL | 14.15 ± 18.01 pg/mL | 12.62 ± 7.71 pg/mL | 31.63 ± 8.22 pg/mL | 97.32 ± 39.18 pg/mL | 1.75 ± 1.28 pg/mL | 154.76 ± 17.98 pg/mL | KC, serum (serum cytokines): 288.89 ± 154.46 pg/mL; LIF, serum (serum cytokines): 45.26 ± 21.57 pg/mL; LIX, serum (serum cytokines): 5234.39 ± 4771.34 pg/mL; M-CSF, serum (serum cytokines): 22.23 ± 9.45 pg/mL; MCP-1, serum (serum cytokines): 88.07 ± 24.41 pg/mL; MIG, serum (serum cytokines): 39.33 ± 12.88 pg/mL; MIP-1a, serum (serum cytokines): 108.03 ± 27.91 pg/mL; MIP-1b, serum (serum cytokines): 81.67 ± 11.63 pg/mL; MIP-2, serum (serum cytokines): 147.63 ± 59.81 pg/mL; RANTES, serum (serum cytokines): 20.67 ± 4.57 pg/mL; TNFa, serum (serum cytokines): 12.71 ± 5.12 pg/mL; VEGF, serum (serum cytokines): 0.87 ± 0.29 pg/mL; atrogin-1, MuRF-1, or CEBPO expression [1]: no significant impact; expression of Wnt5a, Fzd1, β-catenin (CTNNB1) and GSK3B [2]: failed to restore expression to tumor-free control levels
